{
  "source": "patent US5714509A",
  "about": "“Inhibitors of bacterial sialidase and methods of making and using the same” (The University of Alabama, priority 1995, dated 1998)",
  "key": {"[1]": {"tested_on": "influenza virus sialidase", "details": "cited from earlier work; for IC50: read-out: IC50 for influenza virus sialidase inhibition"}, "[2]": {"target": "T1, bacterial sialidase (Micromonospora viridifaciens) (Micromonospora viridifaciens, UniProt Q02834)", "T1 sequence (Q02834 38-647)": "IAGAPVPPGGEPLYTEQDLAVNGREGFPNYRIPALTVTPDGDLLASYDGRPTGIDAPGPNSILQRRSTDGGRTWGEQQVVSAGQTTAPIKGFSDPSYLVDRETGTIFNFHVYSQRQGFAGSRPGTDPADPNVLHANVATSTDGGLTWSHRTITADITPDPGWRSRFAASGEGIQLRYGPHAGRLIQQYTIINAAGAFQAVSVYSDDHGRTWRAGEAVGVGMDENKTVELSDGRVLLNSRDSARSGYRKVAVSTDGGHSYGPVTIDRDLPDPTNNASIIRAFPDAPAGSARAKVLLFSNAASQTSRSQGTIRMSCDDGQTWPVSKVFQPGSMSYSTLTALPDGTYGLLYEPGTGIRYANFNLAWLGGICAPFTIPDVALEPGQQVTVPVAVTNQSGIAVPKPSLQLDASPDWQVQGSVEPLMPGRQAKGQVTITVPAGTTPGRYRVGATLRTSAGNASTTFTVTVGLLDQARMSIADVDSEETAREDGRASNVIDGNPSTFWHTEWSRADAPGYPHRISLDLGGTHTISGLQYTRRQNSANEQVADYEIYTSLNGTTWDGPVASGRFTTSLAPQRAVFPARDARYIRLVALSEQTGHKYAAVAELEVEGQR", "experiment": "Inhibition of bacterial sialidase (Micromonospora viridifaciens), fluorescence assay with MUN", "format": "biochemical", "details": "10 mM inhibitor, 0.1 mM MUN, pH 6.0, 37° C., 15 minutes"}, "[3]": {"tested_on": "S. typhimurium sialidase", "details": "substrate of S. typhimurium sialidase; cited from earlier work"}, "[4]": {"target": "S. typhimurium sialidase", "details": "cited from earlier work"}},
  "data": [
    {"molecule": "CC(=O)N[C@H]1[C@H]([C@H](O)[C@H](O)CO)OC(C(=O)O)=C[C@@H]1N=C(N)N", "note": "[4-guanidino-Neu5Ac2en]", "values": [
      {"measurement": "inhibition selectivity for influenza virus sialidase versus bacterial sialidases", "setting": "[1]; influenza virus versus bacterial sialidases", "value": "inhibition selectivity of 4-guanidino-Neu5Ac2en for influenza virus sialidase versus bacterial sialidases"}
    ]},
    {"molecule": "CC(=O)Nc1c(O)cc(C(=O)O)cc1[N+](=O)[O-]", "note": "[HNBA, 4-acetylamino-3-hydroxyl-5-nitro-benzoic acid]", "values": [
      {"measurement": "inhibition of bacterial sialidase (in words)", "setting": "[2]", "value": "inhibited bacterial sialidase with efficiencies similar to Neu5Ac2en"},
      {"measurement": "inhibition of type A and B influenza virus sialidase (in words)", "setting": "[1]; both type A and B", "value": "potent inhibitors"},
      {"measurement": "inhibition of influenza virus sialidase (in words)", "setting": "[1]", "value": "millimolar"},
      {"measurement": "IC50", "setting": "[1]", "value": "~10", "unit": "mM"}
    ]},
    {"molecule": "CC(=O)NC1C(O)CC(Oc2ccc3c(C)cc(=O)oc3c2)(C(=O)O)OC1C(O)C(O)CO", "note": "[MUN, 4-methylumbelliferyl-a-D-N-acetylneuraminic acid]", "values": [
      {"measurement": "Km", "setting": "[3]", "value": 250, "unit": "µM"},
      {"measurement": "turnover number", "setting": "[3]", "value": "2,700 sec^-1"}
    ]},
    {"molecule": "CC(=O)N[C@H]1[C@H]([C@H](O)[C@H](O)CO)OC(C(=O)O)=C[C@@H]1O", "note": "[Neu5Ac2en]", "values": [
      {"measurement": "Ki", "setting": "[4]", "value": 0.38, "unit": "mM"},
      {"measurement": "IC50", "setting": "[1]", "value": "~10", "unit": "mM"}
    ]},
    {"molecule": "CC(=O)N[C@H]1[C@H]([C@H](O)[C@H](O)CO)OC(O)(C(=O)O)C[C@@H]1O", "note": "(stereo partly shown) [Neu5Ac]", "values": [
      {"measurement": "inhibition by high levels of the cleavage product", "setting": "[4]; high levels, compared to influenza virus sialidase", "value": "do not inhibit the bacterial sialidase"}
    ]}
  ]
}
